The text below walks through data of patent publication US20060135773A1, “Trisubstituted nitrogen modulators of tyrosine phosphatases” (priority 2004, published 2006).

Read-outs that look alike come from different tables or passages of the source.

One data set addresses T1, PTP-1B (Homo sapiens, UniProt P18031).
T1 construct: PTP-1B (purified, 1 mg/mL) as a 1:250 dilution
T1 sequence (P18031 1-321 limits assumed): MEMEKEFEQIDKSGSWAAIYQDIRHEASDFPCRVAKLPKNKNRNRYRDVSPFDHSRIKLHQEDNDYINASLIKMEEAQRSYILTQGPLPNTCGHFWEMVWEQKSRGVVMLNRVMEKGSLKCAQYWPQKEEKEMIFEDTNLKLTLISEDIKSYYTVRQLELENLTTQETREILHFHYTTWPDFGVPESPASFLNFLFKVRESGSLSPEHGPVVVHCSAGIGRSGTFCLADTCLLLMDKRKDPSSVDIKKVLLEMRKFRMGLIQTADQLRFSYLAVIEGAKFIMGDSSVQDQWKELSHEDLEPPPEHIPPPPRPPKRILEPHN
In words: pNPP tyrosine phosphatase inhibition assay, PTP-1B. Type of data set: biochemical. Put shortly: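 Test compounds were screened at two final levels, 31.3 and 10 µM, against 4 µg/mL purified PTP-1B. The substrate was 10 mM p-nitrophenyl phosphate, with incubation for 10 min at 30°C before a K2CO3 quench. Activity was taken from A405.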

In data set [1] the test system is pIR (phosphorylated insulin receptor) in FAO cells. In words: IR phosphorylation assay in FAO cells (pIR ELISA / Western). Type of data set: cell-based, rat. Particulars: 10 nM insulin and 10 μM compound. An excerpt: Antibodies and Chemicals. The antibody against phosphorylated insulin receptor (pIR) and the ELISA kit for detection of pIR were from Biosource (Camarillo, Calif.). Rabbit anti-IR/IGF-IR [pYpY1162/1163] phosphospecific antibody recognizes both the insulin receptor (IR) and the insulin-like growth factor-1 receptor (IGF-1R) phosphorylated at the active site tyrosine residues, 1162 and 1163 (1135 and 1136 for IGF-1R) (pIR/pIGF-1R). The Insulin Receptor [pYpY1162/1163] […] HRP-conjugated secondary antibodies were from Cell Signaling Technology (Beverly, Mass.). The ECL detection system was from Amersham (Buckinghamshire, UK), and human insulin was from Invitrogen (Carlsbad, Calif.).
Tissue Culture. FAO rat hepatoma cells were obtained from ECACC (#89042701) and maintained at 37° C. in a 5% CO2 environment in Dulbecco's modified Eagle's medium with high glucose (DMEM-high glucose) (4500 mg/liter) supplemented with 10% FBS and 50 units/ml penicillin, 100 μg/ml streptomycin and 0.292 mg/ml L-glutamine. For assays, cells were seeded in 24-well plates at a density of 2×10^5 cells/well and maintained until they reached confluency (about 3 days).
IR phosphorylation assays. Cells in 24-well plates were serum starved overnight in DMEM-low glucose (1000 mg/liter) without serum. […] The pIR/pIGF-1R signals were scanned (HP scanjet 3570c) and quantified (Scion Image). […]
In general terms: In an ELISA, binding on a coated surface is turned into a signal by an enzyme label.

Where [2] appears, read: pNPP assay, PTP-1B, read-out: Activity Class (IC50 ranges).

`O=P(O)(O)C(F)(F)c1ccc(CN(Cc2ccc(-c3ccccc3)cc2)Cc2ccc(C(F)(F)P(=O)(O)O)cc2)cc1` [Compound 20, {[4-({Biphenyl-4-ylmethyl-[4-(difluoro-phosphono-methyl)-benzyl]-amino}-methyl)-phenyl]-difluoro-methyl}-phosphonic acid] gave a melting point of 125 to 128 °C. The IC50 on PTP-1B (setting [2]) fell in the range of 2500 to 25000 nM.

`O=C(O)c1ccc(CN(Cc2ccc(C(F)(F)P(=O)(O)O)c(Br)c2)S(=O)(=O)c2ccccc2)cc1` [Compound 31, 4-({Benzenesulfonyl-[3-bromo-4-(difluoro-phosphono-methyl)-benzyl]-amino}-methyl)-benzoic acid]: the melting point was in the range of 160 to 162 °C. Besides, the IC50 at PTP-1B (setting [2]) lay in the range of 100 to 249 nM.

Regarding `COc1ccccc1S(=O)(=O)N(Cc1ccc(NC(=O)C(=O)O)cc1)Cc1ccc(NC(=O)C(=O)O)cc1` [Compound 57, N-[4-({(2-Methoxy-benzenesulfonyl)-[4-(oxalyl-amino)-benzyl]-amino}-methyl)-phenyl]-oxalamic acid], the melting point was 187 to 189 °C (dec.). For the same molecule, the IC50 at PTP-1B (setting [2]) was above 25000 nM.

Take `COc1ccccc1S(=O)(=O)N(Cc1ccc(-c2cccc(C#N)c2)cc1)Cc1ccc(C(F)(F)P(=O)(O)OC(C)OC(=O)OC(C)C)c(Cl)c1` (stereo not drawn) [Compound 218, [(2-Chloro-4-{[(3′-cyano-biphenyl-4-ylmethyl)-(2-methoxy-benzenesulfonyl)-amino]-methyl}-phenyl)-difluoro-methyl]-phosphonic acid mono-(1-isopropoxycarbonyloxy-ethyl) ester]: the “insulin-induced accumulation of pIR, % of 300 nM insulin pIR signal” value in data set [1] is “about 80 % of 300 nM insulin pIR signal”. Further, the IC50 at PTP-1B (in vitro activity of the prodrug, range as in Table 1, read-out: in vitro activity) lay in the range of 2500 to 25000 nM; on PTP-1B (setting [2]) it was 2500 to 25000 nM.

By melting point is commonly meant the temperature of the solid-liquid transition.
